Where a SMILES comes first, the peptide text is derived from it. Bridges are numbered along the chain shown (N, C = ends). [ ]: non-standard residue; d: D form. The star is where a group is joined. Bip = N[C@@H](Cc1ccc(-c2ccccc2)cc1)C(=O)O; Palmitoyl = CCCCCCCCCCCCCCCC(=O)*; Myristoyl = CCCCCCCCCCCCCC(=O)*; pGlu = O=C1CC[C@@H](C(=O)O)N1; NHPhenethyl = c1ccc(CCN*)cc1; Lauroyl = CCCCCCCCCCCC(=O)*; hCys = N[C@@H](CCS)C(=O)O; Nle = CCCC[C@H](N)C(=O)O; Dab = NCC[C@H](N)C(=O)O; AEEA = NCCOCCOCC(=O)O; Aib = CC(C)(N)C(=O)O; Inp = O=C(O)C1CCNCC1
assay: in vitro; details: rat, not told, Surrogate activity-based Plasma stability t½
Experimental: The slope of this line, k, was determined by linear regression (Microsoft Excel). • Stability half-life was then calculated by the formula, t ½=0.693÷k Surrogate Activity-Based Plasma Stability Assay:
The calcium flux protocol described above was followed, with the following changes. The peptides were also incubated with 5% rat plasma (Bioreclamation # [sequence]-M, Na Heparin-treated). Readings were taken at time points t0 and t24 hrs, after incubation in a 37° C. tissue culture incubator. Peptide plasma half-life in minutes was estimated by calculating the following:
2) Calculate slope of value above and

Q: For `CCCCCCCCCCCCCC(=O)NCCOCCOCC(=O)NCCOCCOCC(=O)N[C@@H](CCC(N)=O)C(=O)N[C@@H](CCCNC(=N)N)C(=O)N1CCC[C@H]1C(=O)N[C@@H](CCCNC(=N)N)C(=O)N[C@@H](CC(C)C)C(=O)N[C@H]1CSSC[C@@H](C(=O)N[C@H](Cc2ccccc2)C(=O)O)NC(=O)[C@H](CCCC)NC(=O)[C@@H]2CCCN2C(=O)CNC(=O)[C@H](CCCCN)NC(=O)[C@H](Cc2c[nH]cn2)NC1=O` [Example 58, Myristoyl-O2Oc-O2Oc-Q-R-P-R-L-C-H-K-G-P-Nle-C-f-OH] ({Myristoyl-AEEA-AEEA}-QRPRLCHKGP[Nle]C[dF]-OH; disulfide 6-12), which half-life is on record?
A: > 16.7 h

Q: For `CCCC[C@@H]1NC(=O)[C@@H]2CCCN2C(=O)CNC(=O)[C@H](CCCCN)NC(=O)C(C)(C)NC(=O)[C@@H](NC(=O)[C@H](CC(C)C)NC(=O)[C@H](CCCNC(=N)N)NC(=O)[C@@H]2CCCN2C(=O)[C@H](CCCNC(=N)N)NC(=O)C2CCNCC2)CSSC[C@@H](C(=O)N[C@H](Cc2ccccc2)C(=O)O)NC1=O` [Example 11, H-Isn-R-P-R-L-C-Aib-K-G-P-Nle-C-f-OH] (H-[Inp]RPRLC[Aib]KGP[Nle]C[dF]-OH; disulfide 6-12), which half-life is on record?
A: > 16.7 h

Q: For `CCCC[C@@H]1NC(=O)[C@@H]2CCCN2C(=O)CNC(=O)[C@H](CCCCN)NC(=O)[C@H](CCC(=O)O)NC(=O)[C@@H](NC(=O)[C@H](CC(C)C)NC(=O)[C@H](CCCNC(=N)N)NC(=O)[C@@H]2CCCN2C(=O)[C@H](CCCNC(=N)N)NC(=O)[C@@H]2CCC(=O)N2)CSSC[C@@H](C(=O)N[C@@H](Cc2ccccc2)C(=O)O)NC1=O` [Example 43, pE-R-P-R-L-C-E-K-G-P-Nle-C-F-OH] ([pGlu]RPRLCEKGP[Nle]CF-OH; disulfide 6-12), which half-life is on record?
A: > 16.7 h

Q: For `CCCC[C@@H]1NC(=O)[C@@H]2CCCN2C(=O)CNC(=O)[C@H](Cc2ccccc2)NC(=O)[C@H](Cc2c[nH]cn2)NC(=O)[C@@H](NC(=O)[C@H](CC(C)C)NC(=O)[C@H](CCCNC(=N)N)NC(=O)[C@@H]2CCCN2C(=O)[C@H](CCCNC(=N)N)NC(=O)[C@@H]2CCC(=O)N2)CCNC(=O)C[C@@H](C(=O)NCCc2ccccc2)NC1=O` [Example 4, pE-R-P-R-L-Dab-H-F-G-P-Nle-D-Phenethylamine] ([pGlu]RPRL[Dab]HFGP[Nle]D-NHPhenethyl; lactam 6-12), which half-life is on record?
A: 0.833 h

Q: With `CCCC[C@@H]1NC(=O)[C@@H]2CCCN2C(=O)CNC(=O)[C@H](CCCCN)NC(=O)[C@H](Cc2c[nH]cn2)NC(=O)[C@@H](NC(=O)[C@H](CC(C)C)NC(=O)[C@H](CCCNC(=N)N)NC(=O)[C@H]2CCCN2C(=O)[C@H](CCCNC(=N)N)NC(=O)[C@@H]2CCC(=O)N2)CSSC[C@@H](C(=O)N[C@@H](Cc2ccccc2)C(=O)O)NC1=O` [Example 33, pE-R-p-R-L-C-H-K-G-P-Nle-C-F-OH] ([pGlu]R[dP]RLCHKGP[Nle]CF-OH; disulfide 6-12) as the compound, how does the half-life read?
A: > 16.7 h

Q: With `CCCC[C@@H]1NC(=O)[C@@H]2CCCN2C(=O)CNC(=O)[C@H](CCCCN)NC(=O)[C@H](Cc2c[nH]cn2)NC(=O)[C@@H](NC(=O)[C@H](CCCCN)NC(=O)[C@H](CCCNC(=N)N)NC(=O)[C@@H]2CCCN2C(=O)[C@H](CCCNC(=N)N)NC(=O)[C@@H]2CCC(=O)N2)CSSC[C@@H](C(=O)N[C@@H](Cc2ccccc2)C(=O)O)NC1=O` [Example 37, pE-R-P-R-K-C-H-K-G-P-Nle-C-F-OH] ([pGlu]RPRKCHKGP[Nle]CF-OH; disulfide 6-12) as the compound, how does the half-life read?
A: 2.74 h

Q: With `CCCCCCCCCCCCCCCC(=O)NCCCC[C@H](NC(=O)[C@@H]1CSSC[C@H](NC(=O)[C@H](CC(C)C)NC(=O)[C@H](CCCNC(=N)N)NC(=O)[C@@H]2CCCN2C(=O)[C@H](CCCNC(=N)N)NC(=O)[C@@H]2CCC(=O)N2)C(=O)N[C@@H](Cc2c[nH]cn2)C(=O)N[C@@H](CCCCN)C(=O)NCC(=O)N2CCC[C@H]2C(=O)N[C@@H](CCCC)C(=O)N1)C(=O)O` [Example 22, pE-R-P-R-L-C-H-K-G-P-Nle-C-K(Palmitoyl)-OH] ([pGlu]RPRLCHKGP[Nle]CK(Palmitoyl)-OH; disulfide 6-12) as the compound, how does the half-life read?
A: 13.3 h

Q: Which half-life does the source give for `CCCC[C@@H]1NC(=O)[C@@H]2CCCN2C(=O)CNC(=O)[C@H](CCCCN)NC(=O)[C@H](Cc2c[nH]cn2)NC(=O)[C@@H](NC(=O)[C@H](Cc2ccc(-c3ccccc3)cc2)NC(=O)[C@H](CCCNC(=N)N)NC(=O)[C@@H]2CCCN2C(=O)[C@H](CCCNC(=N)N)NC(=O)[C@@H]2CCC(=O)N2)CSSC[C@@H](C(=O)N[C@@H](Cc2ccccc2)C(=O)O)NC1=O` [Example 41, pE-R-P-R-(4-PhF)-C-H-K-G-P-Nle-C-F-OH] ([pGlu]RPR[Bip]CHKGP[Nle]CF-OH; disulfide 6-12) here?
A: 10.5 h

Q: With `CCCC[C@@H]1NC(=O)[C@@H]2CCCN2C(=O)C(C)(C)NC(=O)[C@H](CCCCN)NC(=O)[C@H](Cc2c[nH]cn2)NC(=O)[C@@H](NC(=O)[C@H](CC(C)C)NC(=O)[C@H](CCCNC(=N)N)NC(=O)[C@@H]2CCCN2C(=O)[C@H](CCCNC(=N)N)NC(=O)[C@@H]2CCC(=O)N2)CSSC[C@@H](C(=O)N[C@@H](Cc2ccccc2)C(=O)O)NC1=O` [Example 20, pE-R-P-R-L-C-H-K-Aib-P-Nle-C-F-OH] ([pGlu]RPRLCHK[Aib]P[Nle]CF-OH; disulfide 6-12) as the compound, how does the half-life read?
A: 8.17 h

Q: Which half-life does the source give for `CCCC[C@@H]1NC(=O)[C@@H]2CCCN2C(=O)CNC(=O)[C@H](CCCCN)NC(=O)C(C)(C)NC(=O)[C@@H](NC(=O)[C@H](CC(C)C)NC(=O)[C@H](CCCNC(=N)N)NC(=O)[C@@H]2CCCN2C(=O)[C@H](CCCNC(=N)N)NC(=O)[C@@H]2CCC(=O)N2)CSSC[C@@H](C(=O)N[C@@H](Cc2ccccc2)C(=O)O)NC1=O` [Example 9, pE-R-P-R-L-C-Aib-K-G-P-Nle-C-F-OH] ([pGlu]RPRLC[Aib]KGP[Nle]CF-OH; disulfide 6-12) here?
A: > 16.7 h

Q: With `CCCCCCCCCCCCCC(=O)NCCOCCOCC(=O)NCCOCCOCC(=O)NCCOCCOCC(=O)N[C@@H](CCC(N)=O)C(=O)N[C@@H](CCCNC(=N)N)C(=O)N1CCC[C@H]1C(=O)N[C@@H](CCCNC(=N)N)C(=O)N[C@@H](CC(C)C)C(=O)N[C@H]1CSSC[C@@H](C(=O)N[C@H](Cc2ccccc2)C(=O)O)NC(=O)[C@H](CCCC)NC(=O)[C@@H]2CCCN2C(=O)CNC(=O)[C@H](CCCCN)NC(=O)[C@H](Cc2c[nH]cn2)NC1=O` [Example 59, Myristoyl-O2Oc-O2Oc-O2Oc-Q-R-P-R-L-C-H-K-G-P-Nle-C-f-OH] ({Myristoyl-AEEA-AEEA-AEEA}-QRPRLCHKGP[Nle]C[dF]-OH; disulfide 6-12) as the compound, how does the half-life read?
A: > 16.7 h

Q: With `CCCC[C@@H]1NC(=O)[C@@H]2CCCN2C(=O)CNC(=O)[C@H](Cc2ccccc2)NC(=O)[C@H](Cc2c[nH]cn2)NC(=O)[C@@H](NC(=O)[C@H](CC(C)C)NC(=O)[C@H](CCCNC(=N)N)NC(=O)[C@@H]2CCCN2C(=O)[C@H](CCCNC(=N)N)NC(=O)[C@@H]2CCC(=O)N2)CCCCNC(=O)C[C@@H](C(=O)NCCc2ccccc2)NC1=O` [Example 1, pE-R-P-R-L-K-H-F-G-P-Nle-D-Phenethylamine] ([pGlu]RPRLKHFGP[Nle]D-NHPhenethyl; lactam 6-12) as the compound, how does the half-life read?
A: 0.512 h

Q: For `CCCC[C@@H]1NC(=O)[C@@H]2CCCN2C(=O)CNC(=O)[C@H](CCCCN)NC(=O)[C@H](Cc2c[nH]cn2)NC(=O)[C@@H](NC(=O)[C@H](CC(C)C)NC(=O)[C@H](CCCNC(=N)N)NC(=O)[C@@H]2CCCN2C(=O)[C@H](CCCNC(=N)N)NC(=O)[C@@H]2CCC(=O)N2)CSSCC[C@@H](C(=O)N[C@@H](Cc2ccccc2)C(=O)O)NC1=O` [Example 51, pE-R-P-R-L-C-H-K-G-P-Nle-hC-F-OH] ([pGlu]RPRLCHKGP[Nle][hCys]F-OH; disulfide 6-12), which half-life is on record?
A: 10.9 h

Q: Which half-life does the source give for `CCCC[C@@H]1NC(=O)[C@@H]2CCCN2C(=O)CNC(=O)[C@H](CCC(=O)O)NC(=O)[C@H](Cc2c[nH]cn2)NC(=O)[C@@H](NC(=O)[C@H](CC(C)C)NC(=O)[C@H](CCCNC(=N)N)NC(=O)[C@@H]2CCCN2C(=O)[C@H](CCCNC(=N)N)NC(=O)[C@@H]2CCC(=O)N2)CSSC[C@@H](C(=O)N[C@@H](Cc2ccccc2)C(=O)O)NC1=O` [Example 38, pE-R-P-R-L-C-H-E-G-P-Nle-C-F-OH] ([pGlu]RPRLCHEGP[Nle]CF-OH; disulfide 6-12) here?
A: > 16.7 h

Q: Which half-life does the source give for `CCCC[C@@H]1NC(=O)[C@@H]2CCCN2C(=O)CNC(=O)[C@H](CCCCN)NC(=O)[C@H](Cc2c[nH]cn2)NC(=O)[C@@H](NC(=O)[C@H](CC(C)C)NC(=O)[C@H](CCCNC(=N)N)NC(=O)[C@@H]2CCCN2C(=O)[C@H](CCCNC(=N)N)NC(=O)[C@@H]2CCC(=O)N2)CSSC[C@@H](C(=O)N[C@@H](Cc2c[nH]cn2)C(=O)O)NC1=O` [Example 48, pE-R-P-R-L-C-H-K-G-P-Nle-C-H-OH] ([pGlu]RPRLCHKGP[Nle]CH-OH; disulfide 6-12) here?
A: 9.11 h

Q: Which half-life does the source give for `CCCC[C@@H]1NC(=O)[C@@H]2CCCN2C(=O)CNC(=O)[C@H](CCCCN)NC(=O)[C@H](Cc2c[nH]cn2)NC(=O)[C@H](NC(=O)[C@H](CC(C)C)NC(=O)[C@H](CCCNC(=N)N)NC(=O)[C@@H]2CCCN2C(=O)[C@H](CCCNC(=N)N)NC(=O)[C@@H]2CCC(=O)N2)CSSC[C@@H](C(=O)N[C@@H](Cc2ccccc2)C(=O)O)NC1=O` [Example 53, pE-R-P-R-L-c-H-K-G-P-Nle-C-F-OH] ([pGlu]RPRL[dC]HKGP[Nle]CF-OH; disulfide 6-12) here?
A: > 16.7 h

Q: For `CCCCCCCCCCCC(=O)NCCOCCOCC(=O)N[C@@H](CCC(N)=O)C(=O)N[C@@H](CCCNC(=N)N)C(=O)N1CCC[C@H]1C(=O)N[C@@H](CCCNC(=N)N)C(=O)N[C@@H](CC(C)C)C(=O)N[C@H]1CSSC[C@@H](C(=O)N[C@@H](Cc2ccccc2)C(=O)O)NC(=O)[C@H](CCCC)NC(=O)[C@@H]2CCCN2C(=O)CNC(=O)[C@H](CCCCN)NC(=O)[C@H](Cc2c[nH]cn2)NC1=O` [Example 25, Lauroyl-O2Oc-Q-R-P-R-L-C-H-K-G-P-Nle-C-F-OH] ({Lauroyl-AEEA}-QRPRLCHKGP[Nle]CF-OH; disulfide 6-12), which half-life is on record?
A: > 16.7 h

Q: For `CCCCCCCCCCCC(=O)NCCCC[C@@H]1NC(=O)[C@@H](NC(=O)[C@H](CC(C)C)NC(=O)[C@H](CCCNC(=N)N)NC(=O)[C@@H]2CCCN2C(=O)[C@H](CCCNC(=N)N)NC(=O)[C@@H]2CCC(=O)N2)CSSC[C@@H](C(=O)N[C@@H](Cc2ccccc2)C(=O)O)NC(=O)[C@H](CCCC)NC(=O)[C@@H]2CCCN2C(=O)CNC(=O)[C@H](CCCCN)NC1=O` [Example 27, pE-R-P-R-L-C-K(Lauroyl)-K-G-P-Nle-C-F-OH] ([pGlu]RPRLCK(Lauroyl)KGP[Nle]CF-OH; disulfide 6-12), which half-life is on record?
A: > 16.7 h
